Experimental data reported in patent publication US20260151379A1, “SALT TYPE AND CRYSTAL FORM OF COMPLEMENT FACTOR B INHIBITOR, AND PREPARATION METHOD THEREFOR AND APPLICATION THEREOF” (SHANGHAI MEIYUE BIOTECH DEVELOPMENT CO., LTD., priority 2022, published 2026).
Like-named read-outs stand apart in the source and are kept apart here.

Tests used:
[1] = target: T1, complement factor B in human serum (Homo sapiens, UniProt P00751); test: Complement hemolytic activity assay (rabbit erythrocytes, normal human serum); type: cell-based; conditions: versus control compound
T1 construct: from tissue; host or cells: normal human serum (NHS)
T1 sequence (P00751 26-764): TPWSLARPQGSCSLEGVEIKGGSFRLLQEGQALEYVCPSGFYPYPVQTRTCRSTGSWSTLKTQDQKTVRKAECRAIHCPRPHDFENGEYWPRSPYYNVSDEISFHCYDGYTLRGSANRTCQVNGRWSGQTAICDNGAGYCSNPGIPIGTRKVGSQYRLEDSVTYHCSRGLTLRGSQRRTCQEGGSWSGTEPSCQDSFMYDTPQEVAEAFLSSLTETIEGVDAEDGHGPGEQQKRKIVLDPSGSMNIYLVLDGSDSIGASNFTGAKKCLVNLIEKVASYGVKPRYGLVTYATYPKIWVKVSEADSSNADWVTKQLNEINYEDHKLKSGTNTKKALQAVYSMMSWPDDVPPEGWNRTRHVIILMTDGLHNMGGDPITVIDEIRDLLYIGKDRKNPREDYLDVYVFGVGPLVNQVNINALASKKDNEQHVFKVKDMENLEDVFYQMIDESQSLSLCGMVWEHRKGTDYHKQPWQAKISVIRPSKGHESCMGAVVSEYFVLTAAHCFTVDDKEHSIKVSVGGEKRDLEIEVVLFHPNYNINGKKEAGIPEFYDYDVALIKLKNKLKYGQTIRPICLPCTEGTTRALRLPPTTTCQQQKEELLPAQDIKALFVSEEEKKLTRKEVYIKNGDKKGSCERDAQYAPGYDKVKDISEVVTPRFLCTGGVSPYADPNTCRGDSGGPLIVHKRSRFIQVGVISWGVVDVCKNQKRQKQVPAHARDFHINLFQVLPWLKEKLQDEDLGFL
Description: Prior to the experiment, the optimal concentration of normal human serum (NHS) required to achieve 100% lysis of rabbit erythrocytes (REs) was obtained by titration testing. […] A GVB0 buffer containing 10 mM Mg-EGTA and containing NHS and RE but no test compound was used as a positive control group (100% lysis). A GVB0 buffer containing 10 mM Mg-EGTA and containing inactivated NHS (heated at 56° C. for 30 min or at 65° C. for 5 min) and RE but no test compound was used as a negative control group (0% lysis). […] Absorbance at 415 nm (A415) was measured using a microplate reader (Molecular Devices, SpectraMax i3X). IC50 values were calculated from percent hemolysis as a function of test compound concentration by non-linear regression.

[2] = test system: Streptococcus-induced rheumatoid arthritis; test: Streptococcus-induced rheumatoid arthritis (RA) model in rats; type: in vivo; conditions: female Lewis rats, 15 mpk intragastric daily for 25 days
Description: In the experiment, 6- to 9-week-old female Lewis rats (Beijing Vital River) were used. Each group consisted of 6 rats, and they were given the cell wall peptidoglycan complexes of Streptococcus and several other species of bacteria by intraperitoneal administration (2-3 mg per rat) on D1, and were given the control compound (15 mpk) and the compound of formula I (15 mpk) by intragastric administration daily for 25 consecutive days. The arthritis in rats was scored in different phases. The scoring criteria are as follows: […] The scoring criteria are as follows: 0 points, no redness and swelling; 1 point, 1-2 red and swollen interphalangeal joints; 2 points, 3-4 red and swollen interphalangeal joints; 3 points, more than 4 red and swollen interphalangeal joints; 4 points, severe redness and swelling in toes or fingers to ankle joints or wrist joints.

[3] = test system: cynomolgus monkey serum AP activity; test: PD of single intragastric administration to cynomolgus monkeys (serum complement AP activity, wieslab assay); type: in vivo; conditions: intragastric 3 mpk and 30 mpk
Description: Cynomolgus monkeys were used. Each group consisted of 3 cynomolgus monkeys, and they were given the control compound at 3 mpk, the control compound at 30 mpk, the compound of formula I at 3 mpk, and the compound of formula I at 30 mpk by intragastric administration. Blood was collected at different time points and used for drug concentration analysis and complement activity detection. The compound concentration in plasma was determined by LC-MS/MS. The complement activity in serum was determined using a wieslab assay (Svar Life Science AB, COMPL AP330 RUO) kit, Normal Human Serum (Complement Technology, NHS).

[4] = Solubility tests of compound of formula I, mixture of crystal forms A and B, and crystal form C at 37° C. (Example 13); type: physicochemical; conditions: 37° C.; for solubility at 1 h / solubility at 24 h: thermodynamic from solid; for solubility at 1 h: read-out: Solubility at 1 h; for solubility at 24 h: read-out: Solubility at 24 h
Description: An appropriate amount of a test sample was weighed out and added to a vial; 3 mL of a medium (water, SGF, FaSSIF, FeSSIF, or the like) was added; the mixture was stirred at 37° C.; […]; centrifugation was performed at 12000 rpm for 10 min; the supernatant was diluted with 50% aqueous acetonitrile solution to an appropriate multiple; and the concentration of the supernatant was determined.
Control and linearity: 10 mg of the compound of formula I was weighed out and added to a 50 mL volumetric flask, 50% aqueous acetonitrile solution was added for dissolution, and the mixture was diluted to volume. Two parts were prepared in parallel. The control was taken and diluted with 50% aqueous acetonitrile solution to 100 μg/mL, 50 μg/mL, and 10 μg/mL, 5 μL of the sample was injected, and a standard curve was plotted.

[5] = Liver microsomal stability experiment (rat); type: in vitro ADME; conditions: rat liver microsomes
Description: (§1) A 0.1 M solution of dipotassium phosphate in distilled water (containing 1 mM ethylenediaminetetraacetic acid) was taken. Then the pH was adjusted to 7.4 with a 0.1 M solution of potassium dihydrogen phosphate in distilled water (containing 1 mM ethylenediaminetetraacetic acid).
(§2) • Rat: SD Rat Liver Microsomes, Cat. No.: LM-DS-02M, RILD Research Institute for Liver Diseases (Shanghai) Co. Ltd. • Monkey: Cynomolgus Monkey Liver Microsomes, Cat. No.: LM-SXH-02M, RILD Research Institute for Liver Diseases (Shanghai) Co. Ltd. • Human: Pooled Human Liver Microsomes (Mongolian), Cat. No.: LM-R-02M, RILD Research Institute for Liver Diseases (Shanghai) Co. Ltd.
(§3) A 10 mM solution of each of the control compound and test compounds was prepared in DMSO. Then 10 μL of the solution was added to 190 μL of acetonitrile to form a 0.5 mM stock solution. 1.5 μL of the 0.5 mM stock solution was measured out, and […] of 20 mg/mL liver microsomes and 479.75 μL of the buffer were added. (The actual preparation amount can be adjusted according to use).
(§4) 10 mg/mL of reduced coenzyme II (NADPH) was prepared in the buffer. A 96-well plate was placed on ice. Wells corresponding to different time points (0, 10, 30, 60 and 90 min, Non-NADPH) were set for each compound. […] The mixture was analyzed on an AB SCIEX ExionLC-Triple Quad 5500 high-performance liquid chromatograph-mass spectrometer. […]

[6] = Liver microsomal stability experiment (human); type: in vitro ADME
Description: as §1, §2, §3, §4

COc1cc(C)c2[nH]ccc2c1CN1CC[C@H](OCC2CC2)C[C@H]1c1ccc(C(=O)O)cc1 [Compound of formula I]
Inhibitory activity against complement factor B in human serum (in words) [1]: significantly better inhibitory activity against complement factor B in human serum than that of the control compound
Arthritis score (in words, FIG. 23) [2]: can improve the arthritis score
Effect on arthritis score versus control compound (in words) [2]: significantly better effect than that of the control compound
Inhibition of cynomolgus monkey serum AP activity (in words, FIG. 22) [3]: can effectively inhibit the cynomolgus monkey serum AP activity
Final pH ([4]; FaSSIF): 6.44
Final pH ([4]; FessIF): 5.03
Final pH ([4]; SGF): 1.74
Final pH ([4]; Water): 8.73
solubility at 1 h ([4]; simulated gastric fluid, SGF): 5510 µg/mL
solubility at 24 h ([4]; simulated gastric fluid, SGF): 5480 µg/mL
solubility at 1 h ([4]; FassIF): 220 µg/mL
solubility at 24 h ([4]; FassIF): 190 µg/mL
solubility at 1 h ([4]; FessIF): 370 µg/mL
solubility at 24 h ([4]; FessIF): 350 µg/mL
solubility at 1 h ([4]; Water): 370 µg/mL
solubility at 24 h ([4]; Water): 310 µg/mL
MMS (rat) Remaining (T = 90 min) [5]: 89.14%
MMS (human) Remaining (T = 90 min) ([6]; human liver microsomes, 90 min): 91.04%
Liver microsomal stability (in words) ([6]; rat, monkey and human liver microsomes): significant liver microsomal stability
